Results as given in ChEMBL document CHEMBL1159356, “Cytotoxic styrylpyrones from Goniothalamus amuyon” (J Nat Prod, 2003).
Converted amounts (≈) assume the structure as drawn. Numbered stars: 1 amine (or outer) side, 2 acyl side, 3 side chain; on linkers, the order of the positions; unused ones are H or OH. Bridge positions count the residues as written; N and C are the ends. Square brackets hold non-standard residues; d marks the D form. Peptide text beside a SMILES is read from it. I, II: the chains in the order shown. Actinocin(1to9) = Cc1c2oc3c(C)ccc(C(=O)[*:2])c3nc-2c(C(=O)[*:1])c(N)c1=O; NMeV = CN[C@H](C(=O)O)C(C)C; Sar = CNCC(=O)O

Assays:
NUGC = assay: Cytotoxicity against human NUGC cells; type: functional, cell-based
[1] = Cytotoxicity against human HONE1 cells; type: functional, cell-based

| SMILES | IC50 (NUGC) [µg/mL] | IC50 [1] [µg/mL] |
| --- | --- | --- |
| CC(=O)O[C@H](c1ccccc1)[C@H](O)[C@H]1CC=CC(=O)O1 | 5.02 (≈ 18.2 µM) | 6.09 (≈ 22 µM) |
| CO[C@H](c1ccccc1)[C@H](O)[C@H]1CC=CC(=O)O1 [6R,7R,8R-8-METHOXYGONIODIOL] | 168 (≈ 675 µM) | 240 (≈ 965 µM) |
| Cc1c2oc3c(C)ccc(C(=O)N[C@@H]4C(=O)N[C@H](C(C)C)C(=O)N5CCC[C@H]5C(=O)N(C)CC(=O)N(C)[C@@H](C(C)C)C(=O)O[C@@H]4C)c3nc-2c(C(=O)N[C@@H]2C(=O)N[C@H](C(C)C)C(=O)N3CCC[C@H]3C(=O)N(C)CC(=O)N(C)[C@@H](C(C)C)C(=O)O[C@@H]2C)c(N)c1=O [DACTINOMYCIN] (I: T[dV]P[Sar][NMeV] / II: T[dV]P[Sar][NMeV]; ester I:1-I:C, II:1-II:C; linker I:N-II:N via Actinocin(1to9)) | 6.61 (≈ 5.27 µM) | 4.53 (≈ 3.61 µM) |
| O=C1C=CC[C@H]([C@@H]2O[C@H]2c2ccccc2)O1 [GONIOTHALAMIN EPOXIDE] | 32.1 (≈ 148 µM) | 36.3 (≈ 168 µM) |
| CC(=O)O[C@H]([C@H](O)c1ccccc1)[C@H]1CC=CC(=O)O1 | 4.12 (≈ 14.9 µM) | 5.69 (≈ 20.6 µM) |
| O=C1C=CC[C@H]([C@@H](O)[C@H](Cl)c2ccccc2)O1 [6R,7R,8R-8-CHLOROGONIODIOL] | 31 (≈ 123 µM) | 4.87 (≈ 19.3 µM) |
